Entries after “also recorded” stand apart in the source; their conditions may differ.
Assays:
[1] = MTT test (viability) on primary keratinocytes (NHK); format: cell-based; settings: human, primary keratinocytes (NHK); MTT test, NHK, 10^−4 M; read-out: Max. inhibition (%) (maximum decrease in viability)
primary keratinocytes = experiment: as above; format: cell-based; settings: for inhibition at 100 µM / IC50: Keratinocyte; for inhibition at 100 µM: read-out: max. inhibition; for IC50: 48 h stimulation, read-out: −lg IC50 [M] ± SEM (converted)
SCC-25 cells = experiment: MTT test (viability) on SCC-25 tumor cells; format: cell-based; settings: for inhibition at 100 µM / IC50 / cytotoxicity at 100 µM: Homo sapiens; for inhibition at 100 µM: read-out: max. inhibition; for IC50: read-out: −lg IC50 [M] ± SEM (converted); for cytotoxicity at 100 µM: read-out: Max. inhibition (%) (maximum decrease in viability)
[2] = MTT test (viability) on HaCaT keratinocyte cell line; format: cell-based; settings: human, 10^−4 M, read-out: Max. inhibition (%) (maximum decrease in viability)
logP values = format: physicochemical
[3] = MTT test (viability) on dermal fibroblasts; format: cell-based; settings: Fibrob., 10^−4 M, read-out: Max. inhibition (%) (maximum decrease in viability)
[4] = MTT test (viability) on colon carcinoma line HT-29; format: cell-based; settings: Hat 29, 10^−4 M
MCF-7 = experiment: MTT test (viability) on breast cancer cell line MCF-7; format: cell-based; settings: Homo sapiens, MCF7, MCF-7, 10^−4 M, read-out: Max. inhibition (%) (maximum decrease in viability)
[5] = MTT test 48 h, primary keratinocytes, inhibitionmax = 100 − E, E = activity at 10^−4 M in %
[6] = MTT test 48 h, SCC-25 cells, inhibitionmax = 100 − E, E = activity at 10^−4 M in %
[7] = MTT test, 48 h stimulation, SCC-25 cells
[8] = MTT test, primary keratinocytes

| IC50 (SCC-25 cells; [7]) | logP (logP values) | SMILES | cytotoxicity [1] | inhibition at 100 µM (primary keratinocytes; [5]) | inhibition at 100 µM (SCC-25 cells; [6]) | cytotoxicity at 100 µM (SCC-25 cells; MTT test, SCC-25, 10^−4 M) | cytotoxicity [2] | IC50 (primary keratinocytes; [8]) | other results |
| --- | --- | --- | --- | --- | --- | --- | --- | --- | --- |
| 4.47e-05 M | -1.13 | Cc1cn([C@H]2CC(=O)[C@@H](CO)O2)c(=O)[nH]c1=O [HM-1, 3′-Deoxy-3′-oxothymidine] | 23% | 24% | 47% | 47% | 16% | – | cytotoxic / antiproliferative effect on tumor cells (SCC-25), in words (SCC-25 cells; SCC-25 cells, FIG. 1, FIG. 2, Table 1): strong cytotoxic effect; also recorded: stronger than that of the two comparative substances 5-fluorouracil and aphidicolin; selectivity: effect on SCC-25 tumor cells compared with keratinocytes, in words (SCC-25 cells; SCC-25 vs primary keratinocytes (and HaCaT)): stronger than that in primary keratinocytes |
| – | 1.69 | C[C@]12C=CC(=O)C=C1CC[C@@H]1[C@@H]2[C@@H](O)C[C@@]2(C)[C@H]1CC[C@]2(O)C(=O)CO [Prednisolone] | – | – | – | – | – | – | – |
| 3.72e-08 M | – | Cc1cn([C@H]2CC(=NO)[C@@H](CO)O2)c(=O)[nH]c1=O [HM-1 oxime, 3′-deoxy-3′-hydroxyliminothymidine] | 3% | 7% | 36% | 30% | 20% | 3.09e-08 M | – |
| 1.05e-06 M | – | O=c1[nH]cc(F)c(=O)[nH]1 [Substance 5-FU, 5-fluorouracil] | 41% | 44% | 42% | 42% | 80% | 1.05e-05 M | cytotoxicity [3]: 88%; Max. inhibition (%) (maximum decrease in viability) [4]: 66%; cytotoxicity at 100 µM (MCF-7): 71% |
| – | 3.82 | CCOC(=O)O[C@]1(C(=O)COC(=O)CC)CC[C@H]2[C@@H]3CCC4=CC(=O)C=C[C@]4(C)[C@H]3[C@@H](O)C[C@@]21C [Prednicarbate] | – | – | – | – | – | – | – |
| – | – | O=C(O)P(=O)(O)O [Foscamet] | – | – | – | – | – | – | max. inhibition (primary keratinocytes; [5]): n.d. (−13%); Max. inhibition (%) (maximum decrease in viability) (primary keratinocytes; MTT test, NHK, 10^−4 M): 0%; max. inhibition (SCC-25 cells; [6]): 9%; pIC50 (SCC-25 cells; [7]): 5.87 ± 0.24; Max. inhibition (%) (maximum decrease in viability) (SCC-25 cells; MTT test, SCC-25, 10^−4 M): 9% |

| SMILES | IC50 (SCC-25 cells; [7]) | logP (logP values) | cytotoxicity [1] | inhibition at 100 µM (primary keratinocytes; [5]) | inhibition at 100 µM (SCC-25 cells; [6]) | cytotoxicity at 100 µM (SCC-25 cells; MTT test, SCC-25, 10^−4 M) | cytotoxicity [2] | IC50 (primary keratinocytes; [8]) | other results |
| --- | --- | --- | --- | --- | --- | --- | --- | --- | --- |
| C[C@@]1(CO)[C@H](O)CC[C@@]2(C)[C@H]1CC[C@H]1C[C@@H]3C[C@@]12CC[C@]3(O)CO [Aphidicolin] | 5.13e-07 M | – | 44% | 46% | 66% | 62% | 86% | 5.62e-09 M | cytotoxicity [3]: 54%; Max. inhibition (%) (maximum decrease in viability) [4]: 70%; cytotoxicity at 100 µM (MCF-7): 61% |
